The text below walks through data of US20120095032A1, “METHODS FOR TREATING LEUKEMIA AND MYELODYSPLASTIC SYNDROME, AND METHODS FOR IDENTIFYING AGENTS FOR TREATING SAME” (Sanford-Burnham Medical Research Institute, priority 2007, published 2012).

Test [1] addresses T1, HePTP (Homo sapiens, UniProt P35236).
T1 sequence (P35236 1-360): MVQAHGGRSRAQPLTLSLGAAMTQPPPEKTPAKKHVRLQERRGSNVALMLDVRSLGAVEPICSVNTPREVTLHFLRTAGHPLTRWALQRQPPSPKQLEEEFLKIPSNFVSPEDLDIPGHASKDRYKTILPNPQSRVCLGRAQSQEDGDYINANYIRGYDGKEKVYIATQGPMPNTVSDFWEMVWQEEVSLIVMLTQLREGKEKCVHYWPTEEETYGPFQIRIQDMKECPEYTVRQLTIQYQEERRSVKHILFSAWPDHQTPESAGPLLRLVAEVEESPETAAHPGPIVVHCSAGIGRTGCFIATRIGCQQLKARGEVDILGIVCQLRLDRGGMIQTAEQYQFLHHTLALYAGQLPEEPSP
The test is described as follows: HePTP HTS primary screen (colorimetric pNPP / Biomol Green). The test is classed as biochemical. The note with it: 20 μM compound; read-out: % Inhib. at 20 μM. The text has this:
(§1) The following assay can be conducted manually or can be carried out by a robotic station.
For this assay, HePTP catalyzes the following reaction:
wherein p-nitrophenyl phosphate serves as a substrate and is cleaved to form p-nitrophenol and phosphate. The liberated phosphate complexes with the Biomol Green™ reagent to provide a quantitative colorimetric value for the amount of substrate cleaved.
(§2) Compounds are then serially diluted in 100% DMSO, and then diluted with water to 10% final DMSO concentration.
(§3) The primary screening actives can then proceed to the dose-response confirmation stage.

The target in test [2] is T1, HePTP. Nature of the test: HePTP dose-response confirmation screening. The format is biochemical. The note with it: for IC50: 10 concentrations, 2-fold serial dilution, pNPP substrate; for n / nH (Hill coefficient): Hill coefficient of the dose-response curve.
Excerpt: as §1, §2, §3
* n represents the Hill coefficient. This coefficient is derived from the Hill equation which has the formula: […]
wherein θ is the fraction of ligand binding sites filled, L is the inhibitor concentration, Ka is the inhibitor concentration producing half occupation of the ligand binding sites, and n is the Hill coefficient.

As a reminder, the IC50 is the concentration that inhibits the measured activity by half. Read a low IC50 as greater potency in that assay.

`O=C1Nc2ccccc2SC(c2ccccc2)C1O` (stereo not drawn) [4-Hydroxy-3-phenyl-2-thia-6-azabicyclo[5.4.0]undeca-7,9,11-trien-5-one]: at HePTP [1], the inhibition at 20 µM was found to be 67.2%. In addition, on HePTP [2], the IC50 amounted to 1150 nM and the “n / nH (Hill coefficient)” value was 2.13.
Take `CN(C)c1ccc(-c2nn3c(-c4ccc(Cl)cc4Cl)nnc3s2)cc1` [4-[2-(2,4-Dichlorophenyl)-6-thia-1,3,4,8-tetrazabicyclo[3.3.0]octa-2,4,7-trien-7-yl]-N,N-dimethyl-aniline]: the inhibition at 20 µM on HePTP [1] was found to be 64.3%. In addition, on HePTP [2], 78400 nM corresponded to half-maximal inhibition (IC50) and the “n / nH (Hill coefficient)” value turned out to be 2.71.
As to `O=C(O)CCC(=O)N1CCc2cc(S(=O)(=O)N3CCN(c4ccc(F)cc4)CC3)ccc21` [4-[5-[4-(4-Fluorophenyl)piperazin-1-yl]sulfonyl-2,3-dihydroindol-1-yl]-4-oxo-butanoic acid], the inhibition at 20 µM on HePTP [1] was 58.8%. For the same molecule, at HePTP [2], the IC50 is 3770 nM and the “n / nH (Hill coefficient)” value turned out to be 7.72.
Regarding `Cc1ccc(-c2nn3c(C)nnc3s2)cc1NC(=O)c1ccc(-c2ccc(Cl)cc2Cl)o1` [5-(2,4-Dichlorophenyl)-N-[2-methyl-5-(2-methyl-6-thia-1,3,4,8-tetrazabicyclo[3.3.0]octa-2,4,7-trien-7-yl)phenyl]furan-2-carboxamide], the inhibition at 20 µM at HePTP [1] stood at 92.4%. In addition, at HePTP [2], half-maximal inhibition (IC50) required 2120 nM and the “n / nH (Hill coefficient)” value was 1.3.
Turning to `Cc1nnc2sc(-c3ccc(NC(=O)c4ccc(-c5ccc(Cl)cc5Cl)o4)cc3)nn12` [5-(2,4-Dichlorophenyl)-N-[4-(2-methyl-6-thia-1,3,4,8-tetrazabicyclo[3.3.0]octa-2,4,7-trien-7-yl)phenyl]furan-2-carboxamide], the inhibition at 20 µM at HePTP [1] was determined as 102%. Moreover, at HePTP [2], it took 1500 nM to reach half-maximal inhibition (IC50) and the “n / nH (Hill coefficient)” value is 1.94.
For `O=C1CCCC2=C1C(c1ccco1)Nc1ccc3ccccc3c12` (stereo not drawn) [5-(Furan-2-yl)-2,3,5,6-tetrahydrobenzo[a]phenantridin-4(1H)-one] the same measures were 59.4%, 5950 nM and 2.08.
On to `COc1ccc(Br)cc1C(=O)Nc1cccc(-c2nnc(-c3ccco3)o2)c1` [5-Bromo-N-[3-[5-(2-furyl)-1,3,4-oxadiazol-2-yl]phenyl]-2-methoxy-benzamide], for which, on HePTP [1], the inhibition at 20 µM is 102%. Moreover, at HePTP [2], it took 4900 nM to reach half-maximal inhibition (IC50) and the “n / nH (Hill coefficient)” value came out at 1.47.
For `Cc1ccc2c(c1C)NC(C(=O)O)C1CC=CC21` (stereo not drawn) [6,7-dimethyl-3a,4,5,9b-tetrahydro-3H-cyclopenta[c]quinoline-4-carboxylic acid] the same measures were 102%, 2120 nM and 2.01.
For `O=C(O)c1c[nH]c2ccc(S(=O)(=O)N3CCN(c4ccc(F)cc4)CC3)cc2c1=O` [6-[4-(4-Fluorophenyl)piperazin-1-yl]sulfonyl-4-oxo-1H-quinoline-3-carboxylic acid] the same measures were 103%, 4660 nM and 2.66.
For `O=C(O)C1Nc2c(O)cccc2C2C=CCC12` (stereo not drawn) [6-hydroxy-3a,4,5,9b-tetrahydro-3H-cyclopenta[c]quinoline-4-carboxylic acid] the same measures were 103%, 200 nM and 2.11.
As for `COc1cccc2c1NC(C(=O)O)C1CC=CC21` (stereo not drawn) [6-methoxy-3a,4,5,9b-tetrahydro-3H-cyclopenta[c]quinoline-4-carboxylic acid], the inhibition at 20 µM at HePTP [1] turned out to be 103%. Also, on HePTP [2], the IC50 stood at 1280 nM and the “n / nH (Hill coefficient)” value turned out to be 1.54.
With `CCOC(=O)c1ccc2c(c1)C1C=CCC1C(C(=O)O)N2` (stereo not drawn) [8-(ethoxycarbonyl)-3a,4,5,9b-tetrahydro-3H-cyclopenta[c]quinoline-4-carboxylic acid], the inhibition at 20 µM at HePTP [1] turned out to be 103%. On HePTP [2], the IC50 stood at 280 nM and the “n / nH (Hill coefficient)” value is given as 2.97.
For the molecule `O=C(Oc1ccccc1)c1ccc2c(c1)C1C=CCC1C(C(=O)O)N2` (stereo not drawn) [8-(phenoxycarbonyl)-3a,4,5,9b-tetrahydro-3H-cyclopenta[c]quinoline-4-carboxylic acid], on HePTP [1], the inhibition at 20 µM was determined as 96.4%. Besides, on HePTP [2], the IC50 was found to be 840 nM and the “n / nH (Hill coefficient)” value worked out at 3.34.
Regarding `Cc1ccc2c(c1)C1C=CCC1C(C(=O)O)N2` (stereo not drawn) [8-methyl-3a,4,5,9b-tetrahydro-3H-cyclopenta[c]quinoline-4-carboxylic acid], the inhibition at 20 µM on HePTP [1] is 102%. Further, on HePTP [2], the IC50 was determined as 410 nM and the “n / nH (Hill coefficient)” value came out at 2.41.
Turning to `COc1ccc(OC)c(N2C(=O)[C@H]3C(c4ccccc4Cl)=NO[C@@H]3C2=O)c1` [(1S,5S)-2-(2-chlorophenyl)-7-(2,5-dimethoxyphenyl)-4-oxa-3,7-diazabicyclo[3.3.0]oct-2-ene-6,8-dione], the inhibition at 20 µM at HePTP [1] was 85.1%. Besides, on HePTP [2], half-maximal inhibition (IC50) required 8250 nM and the “n / nH (Hill coefficient)” value stood at 2.27.
For `C/C(N)=C(\C#N)C(=O)CSc1nnc(Nc2c(C)cccc2C)s1` [(Z)-3-Amino-2-[2-[[5-[(2,6-dimethylphenyl)amino]-1,3,4-thiadiazol-2-yl]sulfanyl]acetyl]but-2-enenitrile] the same measures were 77.9%, 30200 nM and 2.66.
As for `CCCCC[C@H](O)/C=C/[C@H]1C=CC(=O)[C@@H]1C/C=C\CCCC(=O)O` [(Z)-7-[(1R,2S)-2-[(E,3S)-3-Hydroxyoct-1-enyl]-5-oxo-1-cyclopent-3-enyl]hept-5-enoic acid], the inhibition at 20 µM on HePTP [1] was determined as 57.3%. At HePTP [2], the IC50 came to 13700 nM and the “n / nH (Hill coefficient)” value is listed as 2.49.
On to `CCOC(=O)C1CCN(C(=O)Nc2ccc3nc(-c4ccco4)c(-c4ccco4)nc3c2)CC1` [Ethyl 1-[[2,3-bis(2-furyl)quinoxalin-6-yl]carbamoyl]piperidine-4-carboxylate], for which the inhibition at 20 µM at HePTP [1] is 103%. In addition, at HePTP [2], the IC50 is 1120 nM and the “n / nH (Hill coefficient)” value is given as 1.95.
For `CCOC(=O)C(C)Sc1nc2c(c(=O)[nH]c(=O)n2C)n1C/C=C(/C)Cl` (stereo not drawn) [Ethyl 2-[7-[(Z)-3-Chlorobut-2-enyl]-3-methyl-2,6-dioxo-purin-8-yl]sulfanylpropanoate], the inhibition at 20 µM at HePTP [1] was determined as 55.4%. For the same molecule, on HePTP [2], it took 8330 nM to reach half-maximal inhibition (IC50) and the “n / nH (Hill coefficient)” value amounted to 1.44.
For `COC(=O)c1ccccc1NC(=O)c1noc2ccccc12` [Methyl 2-(4-oxa-3-azabicyclo[3.3.0]octa-2,9-diene-2-carbonylamino)benzoate] the same measures were 81.2%, 2330 nM and 1.45.
On to `Cc1cc(NC(=O)Cc2cccs2)no1` [N-(5-methyl-1,2-oxazol-3-yl)-2-thiophen-2-ylacetamide], for which the inhibition at 20 µM on HePTP [1] stood at 99.7%. Also, on HePTP [2], half-maximal inhibition (IC50) was put at 700 nM and the “n / nH (Hill coefficient)” value amounted to 2.49.
For `O=C(NCc1ccco1)c1c2c(nc3ccccc13)CCC2` [N-(Furan-2-ylmethyl)-2,3-dihydro-1h-cyclopenta[b]quinoline-9-carboxamide;] the same measures were 62%, 4630 nM and 1.52.
As for `Cn1cnnc1SCC(=O)Nc1sc2c(c1C(=O)ON)CCC2` [N-[3-(aminooxycarbonyl)-5,6-dihydro-4H-cyclopenta[b]thiophen-2-yl]-2-(4-methyl-4H-1,2,4-triazol-3-ylthio)acetamide], the inhibition at 20 µM at HePTP [1] stood at 90.2%. For the same molecule, on HePTP [2], half-maximal inhibition (IC50) required 2430 nM and the “n / nH (Hill coefficient)” value amounted to 2.33.
For `CCc1ccc(OCC(=O)NC2=CC(=O)/C(=C3/Nc4ccccc4O3)C=C2)cc1` [N-[(4Z)-4-(3H-Benzooxazol-2-ylidene)-3-oxo-1-cyclohexa-1,5-dienyl]-2-(4-ethylphenoxy)acetamide], the inhibition at 20 µM on HePTP [1] was 59%. Moreover, on HePTP [2], the concentration for half-maximal inhibition (IC50) worked out at 5280 nM and the “n / nH (Hill coefficient)” value was 0.29.
For `COc1ccc(Cc2nnc(NC(=O)Cc3cccs3)s2)cc1` [N-{5-[(4-methoxyphenyl)methyl]-1,3,4-thiadiazol-2-yl}-2-thiophen-2-ylacetamide], at HePTP [1], the inhibition at 20 µM was 103%. At HePTP [2], 4020 nM corresponded to half-maximal inhibition (IC50) and the “n / nH (Hill coefficient)” value amounted to 2.33.
For `CC(=O)OCC1=C(C(=O)[O-])N2C(=O)[C@H](NC(=O)Cc3cccs3)[C@H]2SC1.[Na+]` [Sodium (6R,7S)-3-(acetyloxymethyl)-8-oxo-7-[(2-thiophen-2-ylacetyl)amino]-5-thia-1-azabicyclo[4.2.0]oct-2-ene-2-carboxylate] the same measures were 96.2%, 920 nM and 1.12.
